Laboratory results: US11504431B2, “Formulations for the suprachoroidal space of an eye and methods” (Emory University, priority 2016, dated 2022)

How the values were obtained:
[1] = value assumed or taken from literature; cited from earlier work
SCS of live rabbits [2] = details: New Zealand White, rabbit, in vivo, 3 min
SCS of live rabbits [3] = test: Collection of fluorescein by different clearance routes after SCS injection; assay type: in vivo, New Zealand White rabbit; details: one hour post-injection
Protocol: To assess contributions of different routes of clearance, fluorescein from multiple collection sites was collected after SCS injection in vivo. The fluorescein collected from these collection sites was determined over time. The amount of fluorescein leaving through the injection site was found by subtracting site [i] from site [ii] (i.e., difference in fluorescein collected from sclera anterior to the equator without and with injection site plugged). And the amount of fluorescein leaving through blood was found by subtracting site [iv] from site [iii] (i.e., difference in fluorescein collected from sclera posterior to the equator with and without the vortex vein transected). Though the physiological data are inherently noisy, they should nevertheless enable an order of magnitude characterization of the underlying processes (which can be compared to a theoretical model of transport below). The amount of fluorescein collected over time is depicted at FIG. 17.
For this terminal experiment, the rabbit (N=4 eyes per group) was anesthetized with a subcutaneous injection of ketamine/xylazine before microneedle injection; additional injections were given every 30 minutes to maintain anesthesia. Subcutaneous injection of 60 mL saline was also given on the rump to counteract fluid loss. The amount of fluorescein exiting the eye was determined by collecting samples over time from [i] sclera anterior to the equator; [ii] anterior sclera with injection site plugged; [iii] sclera posterior to the equator; and [iv] posterior sclera with vortex vein transected.
Prior to microneedle injection, the supranasal conjunctiva was dissected off the sclera. […] In [i] anterior sclera and [iii] posterior sclera conditions, samples were collected for 1 hour by swabbing the space with a 1 cm×1 cm paper tissue (Kimwipe, Kimberley-Clark, Irving, Tex.). Care was taken to swab only anterior or posterior to the equator, depending on the condition. The tissue was then placed in 1 mL HBSS until analysis.
To determine the amount of fluorescein leaving [ii] the anterior sclera with injection site plugged, a similar experiment was performed. Immediately post-injection, the injection site was plugged by sealing the microneedle into sclera with cyanoacrylate glue (Loctite 4013, Düsseldorf, Germany). Other methods were the same as above.
Heparin (5 mL of 10,000 IU/mL; Hospira, Lake Forest, Ill.) was given intravenously prior to the start of the experiment to prevent coagulation. […] A transfer pipette was used to collect blood exiting the vortex vein for 1 hour. The volume of collected blood was recorded, and HBSS was added to reach a final volume of 2 mL per sample for analysis.
Immediately after the last time point, all animals were euthanized by injection of pentobarbital through the marginal ear vein. Eyes were enucleated to determine the amount of fluorescein remaining (i) within the tissue (including SCS), and (ii) in aqueous humor, vitreous humor, and lens. The Kimwipe paper tissue and ocular tissue samples were placed in HBSS at 4° C. for 2 days to allow fluorescein to diffuse out and equilibrate with the HBSS. The amount of fluorescein in all samples was measured using a multi-plate reader (Excitation: 494 nm, Emission: 521 nm, Synergy H4, BioTek, Winooski, Vt.). In a separate experiment involving incubation of Kimwipes in a known amount of fluorescein, we found no evidence of loss in extracting fluorescein from the Kimwipe, and no leaching of fluorescent species out of the Kimwipe.

rabbit SCS in vivo [4] = test: Clearance of fluorescein from the SCS by fundus microscopy, effect of liquid formulation; design: species or system New Zealand White rabbit
Protocol: After injection of a formulation into the SCS of an anesthetized rabbit, U/S B-scan was used to determine SCS thickness at multiple locations over time, from which the rate of SCS collapse was calculated, as shown at FIG. 9. In companion experiments, the approximate clearance rate of injected fluorescent material from the SCS was found by taking fluorescence fundus images in the rabbit eye in vivo over time until fluorescence was no longer visible.
Also investigated was the effect of liquid formulation viscosity on the timescale of clearance of fluorescein from the SCS. Using fundus microscopy, the time it took for there to be no visual evidence of fluorescein in the SCS was identified. […] This was likely due to the long-lived presence of viscous CMC gel in the SCS (as evidenced by the SCS remaining open for many days), which can slow diffusion of fluorescein out of the SCS.

[5] = test system: SCS of rabbit eyes ex vivo; test: Ex vivo SCS microneedle injection, flat mount of 2D circumferential spread; design: species or system New Zealand White rabbit; details: in HBSS with 0.2 μm red-fluorescent particles, 25-150 μL, 3 minutes post-injection, mean±SEM
Protocol: Extraocular tissues were carefully removed from the rabbit ocular globe. To simulate a physiological intraocular pressure (IOP) of 10-12 mmHg, a water column was raised to ˜14 cm and connected to the eye via a 25-gauge needle penetrated through the optic nerve. A microneedle (750 μm in length, 33-gauge; Clearside Biomedical, Alpharetta, Ga.) attached to a 250 μL glass chromatography syringe (National Scientific, Rockwood, Tenn.) was used to make injections.
Depending on the experimental condition, each injection consisted of 25 to 150 μL of 0.5% (w/v) red-fluorescent particles (0.2 μm diameter; Excitation: 580 nm; Emission: 605 nm) and 0.025% (w/v) fluorescein suspended in Hank's Balanced Salt Solution (HBSS; Gibco, Life Technologies). After each injection, the needle was held in place for 1 minute to minimize reflux. The eye was then frozen via submersion in 100% ethanol chilled over dry ice 3 minutes post-injection depending on experimental condition.
After SCS injection and freezing, eyes were prepared to assess the 2D spread of particles and fluorescein. […]
A digital SLR camera (Canon 60D, Canon, Melville, N.Y.) with a 100 mm lens (Canon) was used to acquire brightfield and fluorescence images. […] The area of green and red fluorescence that was above threshold was calculated for each eye using ImageJ (National Institutes of Health, Bethesda, Md.). […]

SCS of live rabbits [6] = test: SCS clearance kinetics by fundus imaging
rabbit SCS in vivo [7] = test: In vivo SCS injection, RetCam fluorescence fundus imaging of area coverage and co-localization; design: species or system New Zealand White rabbit
Source text: Also investigated was the role of formulation and time on particle distribution in the SCS. The distribution of red-fluorescent particles suspended with green fluorescently-tagged formulation excipients in HBSS after injection into the SCS of live rabbits was imaged using red and green fluorescence simultaneously. Fluorescence was imaged using RetCam imaging, which was preferred to other non-contact fundus imaging methods, since it enabled visualization of the posterior pole as well as the far periphery (i.e., the injection site). The percentage of the SCS area in the composite images that had red/green fluorescence values at least 0.1% of the starting concentration was then calculated, and this calculation was used as a proxy of true coverage; and determined the incidence of co-localization of the red and green fluorescence greater than chance. […]
At predetermined time points, the animals were imaged with a modified RetCam II system (Clarity Medical Systems, Pleasanton, Calif.). […] The built-in fluorescein attachment was used to capture green fluorescence. For the red fluorescence, green light was generated by placing a 575±50 nm bandpass filter (Edmunds Optics) in line with the fiber optic line. A red-emission filter (610±10 nm, Omega Optical, Brattleboro, Vt.) was placed over the camera to capture red fluorescence. […]

area of the visible SCS occupied (SCS of live rabbits [2]) | fluorescein exited via perivascular drainage around the vortex vein (SCS of live rabbits [3]) | fluorescein exited via the injection site (SCS of live rabbits [3]) | fluorescein found in blood (SCS of live rabbits [3]) | fluorescein passed transsclerally to the subconjunctival space (anterior and posterior combined) (SCS of live rabbits [3]) | fluorescein still within tissue (sclera, choroid, SCS, etc.), of total injected (SCS of live rabbits [3]) | fluorescein unaccounted for (SCS of live rabbits [3]) | total clearance of fluorescein from the SCS (rabbit SCS in vivo [4]; injected in 5% CMC solution) | total clearance of fluorescein from the SCS (rabbit SCS in vivo [4]; injected in HBSS) | ratio of area covered by fluorescein versus particles [5] | clearance time constant (τclearance) (SCS of live rabbits [6]; exponential decay fit of fundus fluorescence) | total clearance time from SCS (SCS of live rabbits [6]; fluorescence no longer visible) | peak area coverage of the fluorescent species (of visible SCS area) (rabbit SCS in vivo [7]; 50 μL SCS injection in HBSS) | total clearance of the fluorescently-tagged formulation excipient from the SCS (rabbit SCS in vivo [7]; HBSS = fluorescein in HBSS) | SMILES | diffusivity [1]
– | – | – | – | – | – | – | – | – | – | – | – | – | – | C=C(CC)C(=O)c1ccc(OCC(=O)O)c(Cl)c1Cl [ethacrynic acid] | 5×10^−6 cm^2/s
56±6% | 2.5±0.3% | 1.3±4% | 6.3±4% | 15±0.3% | 46±18% | About 28% | 2.7 ± 0.7 days | 0.33 ± 0.05 days | 2.05±0.24 | 4.3 ± 0.4 h | ≤ 24 h | 66% | ≤ 2 days | O=C1OC2(c3ccc(O)cc3Oc3cc(O)ccc32)c2ccccc21 [fluorescein] | –
